Results taken from the NIST ThermoML archive (doi:10.1021/je034142v).
Where “and” joins values, the source holds several entries; their conditions need not be identical. Equal values may be shown once. Numbers after ± are expanded uncertainties.

Settings: Liquid; for mass density: vibrating tube

C1CCCC1 [cyclopentane]
Settings	mass density [kg/m3]	viscosity
273.15 K, 325900 kPa	–	3.56 ± 0.071 mPa·s
273.15 K, 350700 kPa	–	3.947 ± 0.079 mPa·s
273.15 K, 379200 kPa	–	4.44 ± 0.089 mPa·s
278.15 K, 101.33 kPa	759.64 ± 0.07	–
278.16 K, 100 kPa	–	0.5288 ± 0.011 mPa·s and 0.529 ± 0.011 mPa·s
278.16 K, 2900 kPa	–	0.543 ± 0.011 mPa·s
278.16 K, 5000 kPa	–	0.5539 ± 0.011 mPa·s
278.16 K, 8100 kPa	–	0.5697 ± 0.011 mPa·s
278.16 K, 10800 kPa	–	0.5838 ± 0.012 mPa·s
278.16 K, 25900 kPa	–	0.6618 ± 0.013 mPa·s
278.16 K, 50800 kPa	–	0.7981 ± 0.016 mPa·s
278.16 K, 75800 kPa	–	0.9456 ± 0.019 mPa·s
278.16 K, 100600 kPa	–	1.105 ± 0.022 mPa·s
278.16 K, 125700 kPa	–	1.28 ± 0.026 mPa·s
278.16 K, 150700 kPa	–	1.469 ± 0.029 mPa·s
278.16 K, 175800 kPa	–	1.675 ± 0.034 mPa·s
278.16 K, 200700 kPa	–	1.895 ± 0.038 mPa·s
278.16 K, 225800 kPa	–	2.137 ± 0.043 mPa·s
278.16 K, 250800 kPa	–	2.395 ± 0.048 mPa·s
278.16 K, 275900 kPa	–	2.679 ± 0.054 mPa·s
278.16 K, 300800 kPa	–	2.992 ± 0.06 mPa·s
278.16 K, 325900 kPa	–	3.323 ± 0.067 mPa·s
278.16 K, 350900 kPa	–	3.683 ± 0.074 mPa·s
278.16 K, 380100 kPa	–	4.144 ± 0.083 mPa·s
283.15 K, 101.33 kPa	754.76 ± 0.07	–
287.93 K, 100 kPa	–	0.471 ± 0.0095 mPa·s and 0.4712 ± 0.0095 mPa·s
287.93 K, 3000 kPa	–	0.4845 ± 0.0097 mPa·s
287.93 K, 5400 kPa	–	0.4955 ± 0.01 mPa·s
287.93 K, 8100 kPa	–	0.5084 ± 0.01 mPa·s
287.93 K, 10800 kPa	–	0.5216 ± 0.01 mPa·s
287.93 K, 25900 kPa	–	0.5923 ± 0.012 mPa·s
287.93 K, 50900 kPa	–	0.7153 ± 0.014 mPa·s
287.93 K, 75800 kPa	–	0.8468 ± 0.017 mPa·s
287.93 K, 100800 kPa	–	0.9885 ± 0.02 mPa·s
287.93 K, 125700 kPa	–	1.143 ± 0.023 mPa·s
287.93 K, 150600 kPa	–	1.308 ± 0.026 mPa·s
287.93 K, 175700 kPa	–	1.488 ± 0.03 mPa·s
287.93 K, 200600 kPa	–	1.681 ± 0.034 mPa·s
287.93 K, 225700 kPa	–	1.893 ± 0.038 mPa·s
287.93 K, 250700 kPa	–	2.121 ± 0.043 mPa·s
287.93 K, 275700 kPa	–	2.361 ± 0.047 mPa·s
287.93 K, 300800 kPa	–	2.623 ± 0.053 mPa·s
287.93 K, 325500 kPa	–	2.901 ± 0.058 mPa·s
287.93 K, 349500 kPa	–	3.196 ± 0.064 mPa·s
287.93 K, 376900 kPa	–	3.563 ± 0.071 mPa·s
288.15 K, 101.33 kPa	749.85 ± 0.07	–
293.15 K, 101.33 kPa	744.9 ± 0.07	–
298 K, 100 kPa	–	0.4191 ± 0.0084 mPa·s and 0.4196 ± 0.0084 mPa·s
298 K, 3000 kPa	–	0.4308 ± 0.0087 mPa·s
298 K, 5300 kPa	–	0.4404 ± 0.0089 mPa·s
298 K, 8100 kPa	–	0.4526 ± 0.0091 mPa·s
298 K, 10900 kPa	–	0.4644 ± 0.0093 mPa·s
298 K, 26000 kPa	–	0.5288 ± 0.011 mPa·s
298 K, 50800 kPa	–	0.639 ± 0.013 mPa·s
298 K, 75800 kPa	–	0.7572 ± 0.015 mPa·s
298 K, 100800 kPa	–	0.8842 ± 0.018 mPa·s
298 K, 125800 kPa	–	1.021 ± 0.021 mPa·s
298 K, 150700 kPa	–	1.167 ± 0.023 mPa·s
298 K, 175700 kPa	–	1.324 ± 0.026 mPa·s
298 K, 200700 kPa	–	1.495 ± 0.03 mPa·s
298 K, 225700 kPa	–	1.678 ± 0.034 mPa·s
298 K, 250700 kPa	–	1.874 ± 0.037 mPa·s
298 K, 275700 kPa	–	2.085 ± 0.042 mPa·s
298 K, 300600 kPa	–	2.311 ± 0.046 mPa·s
298 K, 324900 kPa	–	2.542 ± 0.051 mPa·s
298 K, 349600 kPa	–	2.793 ± 0.056 mPa·s
298 K, 375700 kPa	–	3.084 ± 0.062 mPa·s
298.03 K, 100 kPa	–	0.419 ± 0.0084 mPa·s
298.03 K, 5500 kPa	–	0.441 ± 0.0089 mPa·s
298.03 K, 7800 kPa	–	0.4505 ± 0.0091 mPa·s
298.03 K, 10800 kPa	–	0.4637 ± 0.0093 mPa·s
298.03 K, 25900 kPa	–	0.5276 ± 0.011 mPa·s
298.03 K, 50900 kPa	–	0.6379 ± 0.013 mPa·s
298.03 K, 75800 kPa	–	0.7549 ± 0.015 mPa·s
298.03 K, 100800 kPa	–	0.8807 ± 0.018 mPa·s
298.03 K, 125800 kPa	–	1.016 ± 0.02 mPa·s
298.03 K, 150700 kPa	–	1.163 ± 0.023 mPa·s
298.03 K, 175700 kPa	–	1.322 ± 0.026 mPa·s
298.03 K, 200700 kPa	–	1.491 ± 0.03 mPa·s
298.03 K, 225600 kPa	–	1.673 ± 0.034 mPa·s
298.03 K, 250600 kPa	–	1.871 ± 0.037 mPa·s
298.03 K, 275600 kPa	–	2.081 ± 0.042 mPa·s
298.03 K, 300400 kPa	–	2.305 ± 0.046 mPa·s
298.03 K, 325300 kPa	–	2.545 ± 0.051 mPa·s
298.03 K, 350100 kPa	–	2.8 ± 0.056 mPa·s
298.03 K, 378000 kPa	–	3.112 ± 0.062 mPa·s
298.15 K, 101.33 kPa	739.92 ± 0.07	–

101.33 kPa, Capillary tube (Ostwald / Ubbelohde) method
Settings	viscosity [mPa·s]
278.15 K	0.523 ± 0.0036
283.15 K	0.4932 ± 0.0035
288.15 K	0.4657 ± 0.0033
293.15 K	0.4405 ± 0.0032
298.15 K	0.4173 ± 0.003
